Measurements as given in patent US4350692A, “3,7-Disubstituted-3-cephem-4-carboxylic acids” (Fujisawa Pharmaceutical Co., Ltd., priority 1976, dated 1982).
≈ marks a conversion by molar mass, not a printed value.

System: Pseudomonus aeruginosa NCTC-10490
Assay: In vitro activity, two-fold agar-plate dilution method, minimal inhibitory concentration (MIC)
Assay type: cell-based
Settings: 20 h, read-out: MIC (minimal inhibitory concentration)

SMILES | MIC [µg/mL]
Cn1nnnc1SCC1=C(C(=O)O)N2C(=O)C(NC(=O)[C@H](NC(=O)c3cc([N+](=O)[O-])cc([N+](=O)[O-])c3O)c3ccccc3)C2SC1 (stereo partly drawn) [Example 9, 7-[D-N-(2-hydroxy-3,5-dinitrobenzoyl)-2-phenylglycinamido]-3-(1-methyl-1H-tetrazol-5-ylthiomethyl)-3-cephem-4-carboxylic acid] | 1.56 (≈ 2.32 µM)
Cn1nnnc1SCC1=C(C(=O)O)N2C(=O)C(NC(=O)[C@H](NC(=O)c3ccc(O)cc3O)c3ccccc3)C2SC1 (stereo partly drawn) [Example 25, 7-[D-N-(2,4-dihydroxybenzoyl)-2-phenylglycinamido]-3-(1-methyl-1H-tetrazol-5-ylthiomethyl)-3-cephem-4-carboxylic acid] | 1.56 (≈ 2.61 µM)
CN1CCN(S(=O)(=O)c2ccc(O)c(C(=O)N[C@@H](C(=O)NC3C(=O)N4C(C(=O)O)=C(CSc5nnnn5C)CSC34)c3ccccc3)c2)CC1 (stereo partly drawn) [Example 52, 7-[D-N-{2-hydroxy-5-(4-methyl-1-piperazinylsulfonyl)benzoyl}-2-phenylglycinamido]-3-(1-methyl-1H-tetrazol-5-ylthiomethyl)-3-cephem-4-carboxylic acid] | 1.56 (≈ 2.1 µM)
CC(=O)OCC1=C(C(=O)O)N2C(=O)[C@@H](NC(=O)[C@H](NC(=O)COc3ccc(Cl)cc3C(=O)c3ccccc3)c3ccccc3)[C@H]2SC1 [Example 67, 7-[D-N-{2-(2-benzoyl-4-chlorophenoxy)acetyl}-2-phenylglycinamido]cephalosporanic acid] | 1.56 (≈ 2.3 µM)
Cn1nnnc1SCC1=C(C(=O)O)N2C(=O)[C@@H](NC(=O)[C@H](NC(=O)c3cc(Cl)ccc3O)c3ccccc3)[C@H]2SC1 [Example 1, 7-[D-N-(2-hydroxy-5-chlorobenzoyl)-2-phenylglycinamido]-3-(1-methyl-1H-tetrazol-5-ylthiomehyl)-3-cephem-4-carboxylic acid] | 1.56 (≈ 2.53 µM)
CCOC(=O)CS(=O)(=O)NCc1nnc(SCC2=C(C(=O)O)N3C(=O)C(NC(=O)[C@H](NC(=O)c4cc(Cl)cc(Cl)c4O)c4ccccc4)C3SC2)s1 (stereo partly drawn) [Example 53, 7-[D-N-(2-hydroxy-3,5-dichlorobenzoyl)-2-phenylglycinamido]-3-(5-ethoxycarbonylmesylaminomethyl-1,3,4-thiadiazol-2-ylthiomethyl)-3-cephem-4-carboxylic acid] | 1.56 (≈ 1.88 µM)
Cn1nnnc1SCC1=C(C(=O)O)N2C(=O)C(NC(=O)[C@H](NC(=O)c3cc(C#N)c(Cl)cc3O)c3ccccc3)C2SC1 (stereo partly drawn) [Example 6, 7-[D-N-(2-hydroxy-4-chloro-5-cyanobenzoyl)-2-phenylglycinamido]-3-(1-methyl-1H-tetrazol-5-ylthiomethyl)-3-cephem-4-carboxylic acid] | 1.56 (≈ 2.43 µM)

Same assay, conditions: heart infusion agar (HI-agar); overnight culture in Trypticase-soy broth (10^8 viable cells per ml.); incubation at 37° C. for 20 hours; read-out: MIC (minimal inhibitory concentration)

SMILES | MIC [µg/mL]
Cn1nnnc1SCC1=C(C(=O)O)N2C(=O)C(NC(=O)[C@H](NC(=O)COc3cc(Cl)cc(Cl)c3O)c3ccccc3)C2SC1 (stereo partly drawn) [Example 63, 7-[D-N-{2-(2-hydroxy-3,5-dichlorophenoxy)acetyl}-2-phenylglycinamido]-3-(1-methyl-1H-tetrazol-5-ylthiomethyl)-3-cephem-4-carboxylic acid] | 6.25 (≈ 9.18 µM)
CC(=O)c1ccc(O)c(C(=O)N[C@@H](C(=O)NC2C(=O)N3C(C(=O)O)=C(CSc4nnnn4C)CSC23)c2ccccc2)c1 (stereo partly drawn) [Example 5, 7-[D-N-(2-hydroxy-5-acetylbenzoyl)-2-phenylglycinamido]-3-(1-methyl-1H-tetrazol-5-ylthiomethyl)-3-cephem-4-carboxylic acid] | 0.78 (≈ 1.25 µM)

The remaining lines, values ahead:

MIC [µg/mL] | SMILES
12.5 (≈ 20.4 µM) | Cc1nnc(SCC2=C(C(=O)O)N3C(=O)C(NC(=O)[C@H](NC(=O)[C@H](O)c4ccccc4)c4ccccc4)C3SC2)s1 (stereo partly drawn) [Example 56, 7-[D-N-(D-mandeloyl)-2-phenylglycinamido]-3-(5-methyl-1,3,4-thiadiazol-2-ylthiomethyl)-3-cephem-4-carboxylic acid]
0.78 (≈ 1.24 µM) | Cn1nnnc1SCC1=C(C(=O)O)N2C(=O)C(NC(=O)[C@H](NC(=O)c3cc([N+](=O)[O-])ccc3O)c3ccccc3)C2SC1 (stereo partly drawn) [Example 3, 7-[D-N-(2-hydroxy-5-nitrobenzoyl)-2-phenylglycinamido]-3-(1-methyl-1H-tetrazol-5-ylthiomethyl)-3-cephem-4-carboxylic acid]
0.78 (≈ 1.12 µM) | Cn1nnnc1SCC1=C(C(=O)O)N2C(=O)C(NC(=O)[C@H](NC(=O)c3cc(S(N)(=O)=O)c(Cl)cc3O)c3ccccc3)C2SC1 (stereo partly drawn) [Example 8, 7-[D-N-(2-hydroxy-4-chloro-5-sulfamoylbenzoyl)-2-phenylglycinamido]-3-(1-methyl-1H-tetrazol-5-ylthiomethyl)-3-cephem-4-carboxylic acid]
6.25 (≈ 7.57 µM) | CC(=O)OCC1=C(C(=O)O)N2C(=O)[C@@H](NC(=O)[C@H](NC(=O)COc3ccc(Cl)cc3C(=O)c3ccc(NC(=O)CSCC(=O)O)cc3)c3ccccc3)[C@H]2SC1 [Example 69, 7-[D-N-[2-{2-(4-carboxymethylthioacetamidobenzoyl)-4-chlorophenoxy}acetyl]-2-phenylglycinamido]cephalosporanic acid]
0.78 (≈ 1.18 µM) | Cn1nnnc1SCC1=C(C(=O)O)N2C(=O)C(NC(=O)[C@H](NC(=O)c3cc(C(N)=O)c(Cl)cc3O)c3ccccc3)C2SC1 (stereo partly drawn) [Example 7, 7-[D-N-(2-hydroxy-4-chloro-5-carbamoylbenzoyl)-2-phenylglycinamido]-3-(1-methyl-1H-tetrazol-5-ylthiomethyl)-3-cephem-4-carboxylic acid]
0.78 (≈ 1.18 µM) | Cn1nnnc1SCC1=C(C(=O)O)N2C(=O)C(NC(=O)[C@H](NC(=O)c3cc(S(N)(=O)=O)ccc3O)c3ccccc3)C2SC1 (stereo partly drawn) [Example 4, 7-[D-N-(2-hydroxy-5-sulfamoylbenzoyl)-2-phenylglycinamido]-3-(1-methyl-1H-tetrazol-5-ylthiomethyl)-3-cephem-4-carboxylic acid]
0.78 (≈ 1.2 µM) | Cn1nnnc1SCC1=C(C(=O)O)N2C(=O)C(NC(=O)[C@H](NC(=O)c3cc(Cl)cc(Cl)c3O)c3ccccc3)C2SC1 (stereo partly drawn) [Example 2, 7-[D-N-(2-hydroxy-3,5-dichlorobenzoyl)-2-phenylglycinamido]-3-(1-methyl-1H-tetrazol-5-ylthiomethyl)-3-cephem-4-carboxylic acid]
